The record followed here is ChEMBL document CHEMBL4304786, “A novel class of multitarget anti-Alzheimer benzohomoadamantane‒chlorotacrine hybrids modulating cholinesterases and glutamate NMDA receptors” (Eur J Med Chem, 2019).

In data set [1] the target is T1, Glutamate NMDA receptor (Rattus norvegicus) (UniProt P35439+Q00959+Q00960+Q00961+Q62645+Q8VHN2+Q9R1M7). In words: Potency index, ratio of memantine IC50 to compound IC50 for antagonist activity at NMDA receptor in rat CGN cells. The data set is classed as cell-based.
Data set [2] deals with Amyloid-beta precursor protein (Homo sapiens) (UniProt P05067). Description: Inhibition of human recombinant amyloid beta (1 to 42) aggregation expressed in Escherichia coli BL21 (DE3) at 10 uM by Thioflavin S steady state fluorescence assay relative to control.
The target of data set [3] is T2, Cholinesterase (Homo sapiens, UniProt P06276). In words: Potency index, ratio of IC50 for 6-cholorotacrine to compound IC50 for Inhibition of human serum BChE.
The target of data set [4] is Microtubule-associated protein tau (Homo sapiens) (UniProt P10636). In words: Inhibition of tau aggregation (unknown origin) expressed in Escherichia coli BL21 (DE3) at 10 uM by Thioflavin S steady state fluorescence assay relative to control.
Data set [5] has as its target T1, Glutamate NMDA receptor (Rattus norvegicus). Description: Potency index, ratio of benzoho-moadamantanamine IC50 to compound IC50 for antagonist activity at NMDA receptor in rat CGN cells. The data set is classed as cell-based.
Data set [6] concerns the target T3, Acetylcholinesterase (Homo sapiens, UniProt P22303). Description: Inhibition of human recombinant AChE expressed in HEK293 cells using acetylthiocholine iodide as substrate preincubated for 20 mins followed by substrate addition by spectrophotometry analysis.
The next data set can be described thus: in vitro. As to conditions: PAMPA. In general terms: PAMPA measures passive passage across an artificial lipid membrane.
The target in data set [7] is T3, Acetylcholinesterase. Description: Potency index, ratio of IC50 for 6-cholorotacrine to compound IC50 for Inhibition of human recombinant AChE expressed in HEK293 cells. The data set is classed as cell-based.
In data set [8] the target is T2, Cholinesterase. In words: Inhibition of human serum BChE using butyrylthiocholine iodide as substrate preincubated for 20 mins followed by substrate addition by spectrophotometry analysis.
The target in data set [9] is Beta-secretase 1 (Homo sapiens) (UniProt P56817). Description: Inhibition of human recombinant BACE-1 expressed in baculovirus expression system at 5 uM using panvera peptide as substrate measured after 1 hr by FRET assay relative to control.
Another data set deals with Glutamate NMDA receptor. Description: Antagonist activity at NMDA receptor in rat CGN cells assessed as […] in intracellular calcium level incubated for 30 mins in presence of Fura-2AM followed by NMDA/glycine stimulation by fluorescence spectrometer analysis. The data set is classed as cell-based. Background: Calcium flux is commonly read through the fluorescence of an indicator in the cells.

For data set [10], the target named is Glutamate NMDA receptor; GRIN1/GRIN2B (Homo sapiens, UniProt Q05586+Q13224). Description: Inhibition of recombinant GluN1/GluN2B receptor (unknown origin) expressed in HEK293 cells by patch-clamp method. In kind it is cell-based.
Sequence of Glutamate NMDA receptor; GRIN1/GRIN2B (Q13224 whole entry, other chains not shown): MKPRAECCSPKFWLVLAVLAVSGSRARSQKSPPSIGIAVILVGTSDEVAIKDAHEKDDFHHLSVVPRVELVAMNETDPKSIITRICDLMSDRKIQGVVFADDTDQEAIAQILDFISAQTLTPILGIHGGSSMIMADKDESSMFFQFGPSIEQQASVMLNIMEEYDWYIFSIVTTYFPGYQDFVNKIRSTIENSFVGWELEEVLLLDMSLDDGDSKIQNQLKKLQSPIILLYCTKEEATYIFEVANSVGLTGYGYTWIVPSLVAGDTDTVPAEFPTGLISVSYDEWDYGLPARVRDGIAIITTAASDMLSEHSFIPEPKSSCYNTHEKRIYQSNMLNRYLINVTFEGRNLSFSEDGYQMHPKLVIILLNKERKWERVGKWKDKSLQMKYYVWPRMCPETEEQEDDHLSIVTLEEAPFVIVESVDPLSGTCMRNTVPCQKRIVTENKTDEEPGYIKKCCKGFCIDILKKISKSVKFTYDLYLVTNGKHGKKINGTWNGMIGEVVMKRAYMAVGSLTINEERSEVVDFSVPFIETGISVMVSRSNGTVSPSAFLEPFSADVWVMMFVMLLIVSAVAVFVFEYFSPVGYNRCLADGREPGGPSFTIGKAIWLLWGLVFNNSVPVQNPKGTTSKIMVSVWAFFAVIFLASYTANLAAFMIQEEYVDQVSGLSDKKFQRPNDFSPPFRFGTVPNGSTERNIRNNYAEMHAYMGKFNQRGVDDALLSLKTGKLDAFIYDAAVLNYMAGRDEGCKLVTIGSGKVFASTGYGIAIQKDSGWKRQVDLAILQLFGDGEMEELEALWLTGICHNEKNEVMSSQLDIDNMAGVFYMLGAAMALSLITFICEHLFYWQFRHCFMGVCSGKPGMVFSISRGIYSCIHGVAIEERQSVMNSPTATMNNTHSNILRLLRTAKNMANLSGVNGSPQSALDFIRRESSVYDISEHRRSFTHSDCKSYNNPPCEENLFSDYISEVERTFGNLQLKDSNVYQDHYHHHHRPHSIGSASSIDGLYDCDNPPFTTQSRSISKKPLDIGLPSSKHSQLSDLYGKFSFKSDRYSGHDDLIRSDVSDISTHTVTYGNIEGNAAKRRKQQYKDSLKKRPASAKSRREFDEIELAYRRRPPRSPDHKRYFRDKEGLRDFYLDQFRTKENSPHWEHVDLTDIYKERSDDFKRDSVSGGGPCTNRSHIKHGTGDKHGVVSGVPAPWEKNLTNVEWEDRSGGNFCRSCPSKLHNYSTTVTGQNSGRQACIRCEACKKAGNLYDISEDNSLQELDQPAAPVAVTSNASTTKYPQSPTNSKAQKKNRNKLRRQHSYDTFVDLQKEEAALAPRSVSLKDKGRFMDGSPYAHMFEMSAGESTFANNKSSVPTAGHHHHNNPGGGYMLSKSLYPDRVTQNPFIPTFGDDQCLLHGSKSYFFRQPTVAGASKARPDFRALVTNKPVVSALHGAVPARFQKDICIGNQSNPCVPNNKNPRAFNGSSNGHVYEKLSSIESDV

T3 sequence (P22303 whole entry): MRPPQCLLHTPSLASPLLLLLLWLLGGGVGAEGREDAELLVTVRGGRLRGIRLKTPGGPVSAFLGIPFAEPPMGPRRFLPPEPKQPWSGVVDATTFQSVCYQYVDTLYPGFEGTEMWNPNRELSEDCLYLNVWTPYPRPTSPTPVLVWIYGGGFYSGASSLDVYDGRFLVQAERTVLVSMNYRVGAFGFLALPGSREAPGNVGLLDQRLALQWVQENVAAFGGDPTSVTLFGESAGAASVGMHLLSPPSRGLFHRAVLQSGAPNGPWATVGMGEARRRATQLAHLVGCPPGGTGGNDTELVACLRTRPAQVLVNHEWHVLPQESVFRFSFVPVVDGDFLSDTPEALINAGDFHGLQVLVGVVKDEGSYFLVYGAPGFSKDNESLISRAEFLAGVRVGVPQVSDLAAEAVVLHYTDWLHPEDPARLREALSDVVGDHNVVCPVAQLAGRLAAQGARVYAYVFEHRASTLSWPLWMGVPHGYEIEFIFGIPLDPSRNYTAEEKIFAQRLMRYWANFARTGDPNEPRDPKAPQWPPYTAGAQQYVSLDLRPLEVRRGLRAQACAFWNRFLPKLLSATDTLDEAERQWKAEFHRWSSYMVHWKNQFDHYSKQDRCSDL
Sequence of Amyloid-beta precursor protein (Homo sapiens) (P05067 whole entry): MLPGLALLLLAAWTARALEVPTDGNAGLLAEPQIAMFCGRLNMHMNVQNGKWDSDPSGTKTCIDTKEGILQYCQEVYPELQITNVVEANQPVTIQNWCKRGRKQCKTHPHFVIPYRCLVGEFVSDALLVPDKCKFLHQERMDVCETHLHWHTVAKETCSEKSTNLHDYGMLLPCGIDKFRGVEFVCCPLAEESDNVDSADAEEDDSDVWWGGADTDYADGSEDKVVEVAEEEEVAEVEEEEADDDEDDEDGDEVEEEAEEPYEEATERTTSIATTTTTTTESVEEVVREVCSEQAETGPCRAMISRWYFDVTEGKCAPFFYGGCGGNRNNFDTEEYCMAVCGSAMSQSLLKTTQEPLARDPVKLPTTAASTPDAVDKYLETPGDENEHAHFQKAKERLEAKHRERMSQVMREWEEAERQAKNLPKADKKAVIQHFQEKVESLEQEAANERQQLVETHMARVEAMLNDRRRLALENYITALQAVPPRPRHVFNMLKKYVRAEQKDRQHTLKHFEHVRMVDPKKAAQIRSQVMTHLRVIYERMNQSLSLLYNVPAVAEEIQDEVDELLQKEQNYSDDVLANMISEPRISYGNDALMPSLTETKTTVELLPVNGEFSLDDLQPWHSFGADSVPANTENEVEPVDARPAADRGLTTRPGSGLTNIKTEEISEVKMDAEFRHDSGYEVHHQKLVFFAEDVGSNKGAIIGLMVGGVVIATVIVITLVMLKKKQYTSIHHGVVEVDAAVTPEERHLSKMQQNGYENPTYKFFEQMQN
Sequence of Beta-secretase 1 (Homo sapiens) (P56817 whole entry): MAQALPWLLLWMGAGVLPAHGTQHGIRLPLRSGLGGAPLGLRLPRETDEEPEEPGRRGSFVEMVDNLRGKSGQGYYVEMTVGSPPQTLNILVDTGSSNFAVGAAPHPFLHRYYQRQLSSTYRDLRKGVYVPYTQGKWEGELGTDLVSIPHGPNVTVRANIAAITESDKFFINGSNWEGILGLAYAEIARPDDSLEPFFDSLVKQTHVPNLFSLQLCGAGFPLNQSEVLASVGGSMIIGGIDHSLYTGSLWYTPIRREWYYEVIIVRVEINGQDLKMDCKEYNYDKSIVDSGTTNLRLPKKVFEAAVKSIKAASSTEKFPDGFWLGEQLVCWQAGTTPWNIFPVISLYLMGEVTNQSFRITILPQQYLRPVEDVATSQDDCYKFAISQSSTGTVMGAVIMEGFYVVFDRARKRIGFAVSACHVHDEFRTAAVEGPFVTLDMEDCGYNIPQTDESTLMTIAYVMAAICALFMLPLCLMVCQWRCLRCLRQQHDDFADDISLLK
T2 sequence (P06276 whole entry): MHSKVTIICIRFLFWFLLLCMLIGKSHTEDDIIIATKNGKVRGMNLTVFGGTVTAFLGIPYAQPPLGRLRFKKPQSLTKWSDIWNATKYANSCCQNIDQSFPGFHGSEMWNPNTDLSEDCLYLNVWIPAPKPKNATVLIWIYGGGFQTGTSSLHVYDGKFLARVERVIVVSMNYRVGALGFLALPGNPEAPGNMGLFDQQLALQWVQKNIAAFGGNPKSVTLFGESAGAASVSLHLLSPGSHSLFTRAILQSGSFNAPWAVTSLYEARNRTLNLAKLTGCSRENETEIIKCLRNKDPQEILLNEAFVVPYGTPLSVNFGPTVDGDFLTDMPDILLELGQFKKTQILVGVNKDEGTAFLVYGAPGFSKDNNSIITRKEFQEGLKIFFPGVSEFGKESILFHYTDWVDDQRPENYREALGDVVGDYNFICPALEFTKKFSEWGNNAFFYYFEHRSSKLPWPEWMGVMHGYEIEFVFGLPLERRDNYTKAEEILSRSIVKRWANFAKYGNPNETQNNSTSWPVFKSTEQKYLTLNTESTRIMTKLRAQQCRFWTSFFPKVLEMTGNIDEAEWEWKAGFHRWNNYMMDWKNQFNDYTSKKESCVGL
Sequence of Microtubule-associated protein tau (Homo sapiens) (P10636 whole entry): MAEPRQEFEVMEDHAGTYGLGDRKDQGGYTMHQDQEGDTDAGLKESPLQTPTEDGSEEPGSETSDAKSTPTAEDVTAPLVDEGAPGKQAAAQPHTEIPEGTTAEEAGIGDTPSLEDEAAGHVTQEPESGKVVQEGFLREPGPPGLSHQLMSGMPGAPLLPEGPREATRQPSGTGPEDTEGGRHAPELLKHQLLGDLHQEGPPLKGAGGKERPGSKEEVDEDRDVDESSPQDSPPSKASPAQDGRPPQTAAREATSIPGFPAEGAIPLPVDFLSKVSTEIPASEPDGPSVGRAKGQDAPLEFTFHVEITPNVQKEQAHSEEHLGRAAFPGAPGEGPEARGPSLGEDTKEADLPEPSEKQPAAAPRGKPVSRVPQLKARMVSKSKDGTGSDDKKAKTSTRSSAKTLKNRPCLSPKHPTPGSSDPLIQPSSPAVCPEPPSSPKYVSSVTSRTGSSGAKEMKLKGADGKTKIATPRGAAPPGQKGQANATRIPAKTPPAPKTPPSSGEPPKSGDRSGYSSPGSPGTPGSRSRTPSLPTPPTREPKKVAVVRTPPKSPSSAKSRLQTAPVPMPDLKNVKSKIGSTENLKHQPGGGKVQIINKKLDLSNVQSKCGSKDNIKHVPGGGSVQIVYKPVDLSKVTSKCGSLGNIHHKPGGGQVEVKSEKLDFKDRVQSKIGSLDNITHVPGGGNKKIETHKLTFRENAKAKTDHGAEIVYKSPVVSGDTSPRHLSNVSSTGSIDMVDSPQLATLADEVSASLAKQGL
Description for in vitro: Permeability of the compound measured after compound dilution in PBS/EtOH buffer (70:30) by PAMPA-BBB assay

For orientation: inhibition means the drop in the measured response relative to a control, in per cent. Usually IC50 stands for the concentration that gives 50% inhibition. Broadly, the Papp is the rate of passage across a membrane or cell layer, normalised by area and donor concentration. Lower therefore signals poor permeation. Regarding `FC12CC3CC(NCCCCCNc4c5c(nc6cc(Cl)ccc46)CCCC5)(CC(C1)c1ccccc13)C2`, the Ratio IC50 was 1.7 in [1], 2 on Cholinesterase [3], 2 in data set [5] and 6 to 44 on Acetylcholinesterase [7]. For the same molecule, the inhibition in data set [2] was 12.3%; in data set [4], 20.7%; in [9] it was 18%. Besides, the half-maximal inhibitory concentration (IC50) was determined as 1.4 nM on Acetylcholinesterase [6], 200 nM at Cholinesterase [8] and 900 nM at Glutamate NMDA receptor. The molecule also displayed a Papp in the data set “in vitro” of 6.5 ×10⁻⁶ cm/s.
For `NC12CC3CC(F)(CC(C1)c1cc(NC(=O)CCCNc4c5c(nc6cc(Cl)ccc46)CCCC5)ccc13)C2` (configuration not stated), the figures for the Ratio IC50 (in data set [1]; in data set [5]; at Acetylcholinesterase [7]) were 1.7, 2 and 6 to 44, respectively. Further, the values for the inhibition in data set [2], in data set [4] and in data set [9] were below 5%, 6.9% and 18%, respectively. Moreover, the IC50 at Acetylcholinesterase [6] was 0.3 nM; against Cholinesterase [8], 500 nM; at Glutamate NMDA receptor it was 1200 nM. Moreover, the Papp in the data set “in vitro” was determined as 2.7 ×10⁻⁶ cm/s.
In general, Ki refers to the equilibrium dissociation constant of an inhibitor or competing ligand from its target. On to `COc1ccc2nc3c(c(NCCCCCNC(=S)NC45CC6CC(CC(C6)C4)C5)c2c1)CCCC3`, for which, in data set [10], the inhibitory constant (Ki) turned out to be 1800 nM.
Consider `Nc1c2c(nc3cc(Cl)ccc13)CCCC2`, for which the inhibition was below 5% in [4] and 18% in [9]. Also, in the data set “in vitro”, the apparent permeability (Papp) was determined as 20 ×10⁻⁶ cm/s.
`O=C(CCCCNc1c2c(nc3cc(Cl)ccc13)CCCC2)NC12CC3CC(F)(CC(C1)c1ccccc13)C2`: the inhibition in data set [2] is 9%; in data set [4], 12.6%; in data set [9] it was 18%. In addition, the concentration for half-maximal inhibition (IC50) came out at 1.3 nM on Acetylcholinesterase [6], 2400 nM against Cholinesterase [8] and 8300 nM at Glutamate NMDA receptor. The molecule also displayed a Papp in “in vitro” of 9 ×10⁻⁶ cm/s. Further, on Acetylcholinesterase [7], the Ratio IC50 is 6 to 44.
On to `O=C(CCCNc1c2c(nc3cc(Cl)ccc13)CCCC2)NC12CC3CC(F)(CC(C1)c1ccccc13)C2`, for which the inhibition is below 5% in data set [2], 10.2% in data set [4] and 18% in [9]. Further, the values for the IC50 at Acetylcholinesterase [6], on Cholinesterase [8] and on Glutamate NMDA receptor were 1.4 nM, 2300 nM and 7000 nM, respectively. Besides, in the data set “in vitro”, the Papp came to 9.8 ×10⁻⁶ cm/s. Further, the Ratio IC50 at Acetylcholinesterase [7] lay in the range of 6 to 44.
Take `NC12CC3CC(F)(CC(C1)c1cc(NC(=O)CCCCNc4c5c(nc6cc(Cl)ccc46)CCCC5)ccc13)C2` (configuration not stated): the inhibition in data set [2] is below 5%; in [4] it was 22.9%; in [9], 18%. For the same molecule, the Ratio IC50 worked out at 24 at Cholinesterase [3] and 44 on Acetylcholinesterase [7]. In addition, the IC50 came to 2.5 nM at Acetylcholinesterase [6], 20 nM on Cholinesterase [8] and 3400 nM on Glutamate NMDA receptor. Besides, the Papp in “in vitro” was found to be 3.1 ×10⁻⁶ cm/s.
For the molecule `FC12CC3CC(NCCCCNc4c5c(nc6cc(Cl)ccc46)CCCC5)(CC(C1)c1ccccc13)C2`, the inhibition was 8.4% in data set [2], 22% in data set [4] and 18% in data set [9]. Besides, the 50% inhibitory concentration (IC50) at Acetylcholinesterase [6] was 2 nM; at Cholinesterase [8] it was 1100 nM; at Glutamate NMDA receptor, 3300 nM. The apparent permeability coefficient (Papp) in the data set “in vitro” came out at 6.3 ×10⁻⁶ cm/s. In addition, on Acetylcholinesterase [7], the Ratio IC50 lay within 6 to 44.
Regarding `NC12CC3CC(F)(CC(C1)c1ccccc13)C2`, the Ratio IC50 in data set [1] was 1.7. Besides, the inhibition in [9] turned out to be 18%. Moreover, the concentration for half-maximal inhibition (IC50) on Glutamate NMDA receptor turned out to be 1900 nM.
As for `CC12CC3CC(C)(C1)CC(N)(C3)C2`, the inhibition in [9] is 18%.
